What was measured:
Format in all cases: cell-based
[1] = tested on: human dermal fibroblasts CCC-ESF-1; assay: Anti-fibrosis activity test: inhibition of proliferation of human dermal fibroblasts CCC-ESF-1 (CCK-8); settings: Fibroblast
How it was run: (§1)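 Read-out: absorbance at 450 nm after 2 h with CCK-8, following 48 h of compound exposure of adhered cells (2×10^4 cells/mL, 24 h attachment, 37° C, 5% CO2). Proliferation inhibition was taken relative to the blank control, and IC50 values were calculated from it.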

[2] = tested on: cardiac fibroblast RAT-iCell-C002; assay: Anti-fibrosis activity test: inhibition of proliferation of cardiac fibroblast RAT-iCell-C002 (CCK-8); settings: Cardiac fibroblast, 48 h
How it was run: as §1

NF-κB = assay: Immunological activity test: inhibition of NF-κB activity; settings: initial concentration of 30 μM; a/b isomers given as first/second symbol; read-out: IC50 (μM), inhibitory activity against NF-κB
How it was run: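 NF-κB inhibition was tested at an initial 30 μM compound concentration, with parthenolide as positive control, and IC50 values were determined from follow-up analysis.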

[3] = tested on: mouse macrophages (RAW264.7); assay: Lipopolysaccharide-induced NO secretion in macrophages (Griess); settings: Mus musculus, RAW264.7, 24 h, RAW264.7, LPS 1 μg/ml, a/b isomers given as first/second symbol, read-out: IC50 (μM), inhibition of lipopolysaccharide-induced NO secretion in macrophages
How it was run: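 Absorbance at 548 nm after Griess reagent addition to culture supernatant gave NO content; inhibition rate was derived relative to blank control. Cells were mouse RAW264.7 macrophages exposed to compounds and 1 μg/ml LPS for 24 hours.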

[4] = tested on: human lung fibroblasts HFL1; assay: Anti-fibrosis activity test: inhibition of proliferation of human lung fibroblasts HFL1 (CCK-8); settings: Homo sapiens, HFL1, 48 h
How it was run: as §1

[5] = tested on: human fibrosarcoma cells HT-1080; assay: Anti-fibrosis activity test: inhibition of proliferation of human fibrosarcoma cells HT-1080 (CCK-8); settings: Homo sapiens, HT-1080, 48 h
How it was run: as §1

BHK-21 cells = assay: Anti-fibrosis activity test: inhibition of BHK-21 cell proliferation (CCK-8); settings: Mesocricetus auratus, BHK-21, 48 h
How it was run: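 BHK-21 cells seeded at 2×10^4 cells/mL, allowed to adhere 24 h at 37° C, 5% CO2, then exposed to compounds at graded concentrations in triplicate for 48 h. CCK-8 added for 2 h and absorbance read at 450 nm; inhibition rate taken as (1−Ai/Ao)×100% and IC50 fitted.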

[6] = tested on: human embryonic lung fibroblast IMR-90; assay: Anti-fibrosis activity test: inhibition of proliferation of human embryonic lung fibroblast IMR-90 (CCK-8)
How it was run: as §1

[7] = tested on: human hepatic stellate cells LX-2; assay: Anti-fibrosis activity test: inhibition of proliferation of human hepatic stellate cells LX-2 (CCK-8); settings: Homo sapiens, 48 h
How it was run: as §1

[8] = human dermal fibroblasts CCC-ESF-1, CCK-8, 48 hours
[9] = cardiac fibroblast RAT-iCell-C002, CCK-8, 48 hours
[10] = human lung fibroblasts HFL1, CCK-8, 48 hours
[11] = human fibrosarcoma cells HT-1080, CCK-8, 48 hours
[12] = CCK-8, 48 hours after administration
[13] = human embryonic lung fibroblast IMR-90, CCK-8, 48 hours
[14] = human hepatic stellate cells LX-2, CCK-8, 48 hours
[15] = Homo sapiens, CCC-ESF-1 cells, 48 h, CCK-8
[16] = Homo sapiens, IMR-90 cells, 48 h, CCK-8

IC50 (NF-κB) [µM]	IC50 [3] [µM]	IC50 [5, 11] [mM]	IC50 ([5]; HT-1080 cells, 48 h, CCK-8) [mM]	SMILES	IC50 [1, 8] [mM]	IC50 [2, 9] [mM]	IC50 [4, 10] [mM]	IC50 (BHK-21 cells; [12]) [mM]	IC50 [6, 13] [mM]	IC50 [7, 14] [mM]	IC50 [1, 15] [mM]	IC50 ([2]; RAT-iCell-C002 cells, CCK-8) [mM]	IC50 ([4]; HFL1 cells, 48 h, CCK-8) [mM]	IC50 (BHK-21 cells; 48 h, CCK-8) [mM]	IC50 [6, 16] [mM]	IC50 ([7]; LX-2, 48 h, LX-2 cells, CCK-8) [mM]
1 to 10	1 to 10	0.05 to 5		O=C1c2c(nc3ccccc3c2OCc2ccccc2)-c2cccn21 [Compound 103b, 9-(benzyloxy)-10H-pyrrolizino[1,2-b]quinolin-10-one]	0.05 to 5	0.05 to 5	0.05 to 5	0.05 to 5	< 0.05	0.05 to 5						
1 to 10	0.1 to 1	0.05 to 5		O=C1c2c([nH]c3c(F)cccc3c2=O)-c2cccn21 [Compound 444a, 5-Fluoro-9H-pyrrolizino[1,2-b]quinoline-9,10(4H)-dione]	0.05 to 5	0.05 to 5	0.05 to 5	0.05 to 5	0.05 to 5	0.05 to 5						
1 to 10	1 to 10	0.05 to 5		O=C(Cn1c2c(c(=O)c3ccccc31)C(=O)n1cccc1-2)c1ccc(-c2ccccc2)cc1 [Compound 50a, 4-(2-([1,1′-Biphenyl]-4-yl)-2-oxoethyl)-9H-pyrrolizino[1,2-b]quinoline-9,10(4H)-dione]	0.05 to 5	5 to 20	0.05 to 5	0.05 to 5	5 to 20	5 to 20						
1 to 10	0.1 to 1	0.05 to 5		O=C1c2c(nc3ccccc3c2OCc2cccc(F)c2)-c2cccn21 [Compound 595b, 9-((3-fluorobenzyl)oxy)-10H-pyrrolizino[1,2-b]quinolin-10-one]	0.05 to 5	0.05 to 5	0.05 to 5	0.05 to 5	0.05 to 5	0.05 to 5						
1 to 10	1 to 10	0.05 to 5		CS(=O)(=O)Oc1c2c(nc3ccccc13)-c1cccn1C2=O [Compound 650b, 10-oxo-10H-pyrrolizino[1,2-b]quinolin-9-yl methanesulfonate]	0.05 to 5	0.05 to 5	0.05 to 5	0.05 to 5	0.05 to 5	0.05 to 5						
1 to 10	1 to 10		0.05 to 5	O=C1c2c(n(CCCCN3CCCCC3)c3ccccc3c2=O)-c2cccn21 [Compound 667a, 4-(4-(Piperidin-1-yl)butyl)-9H-pyrrolizino[1,2-b]quinoline-9,10(4H)-dione]							0.05 to 5	0.05 to 5	0.05 to 5	0.05 to 5	0.05 to 5	0.05 to 5
1 to 10	1 to 10	0.05 to 5		N#Cc1ccccc1COc1c2c(nc3ccccc13)-c1cccn1C2=O [Compound 577b, 2-(((10-oxo-10H-pyrrolizino[1,2-b]quinolin-9-yl)oxy)methyl)benzonitrile]	0.05 to 5	0.05 to 5	0.05 to 5	0.05 to 5	0.05 to 5	0.05 to 5						
0.1 to 1	10 to 50	0.05 to 5		O=C1c2c(n(Cc3ccc(-c4ccccc4)cc3)c3ccccc3c2=O)-c2cccn21 [Compound 649a, 4-([1,1′-Biphenyl]-4-ylmethyl)-9H-pyrrolizino[1,2-b]quinoline-9,10(4H)-dione]	0.05 to 5	0.05 to 5	0.05 to 5	0.05 to 5	0.05 to 5	0.05 to 5						
0.1 to 1	1 to 10	0.05 to 5		N#Cc1cccc2nc3c(c(OCc4ccc(F)cc4)c12)C(=O)n1cccc1-3 [Compound 462b, 9-((4-fluorobenzyl)oxy)-10-oxo-10H-pyrrolizino[1,2-b]quinoline-8-carbonitrile]	0.05 to 5	0.05 to 5	0.05 to 5	0.05 to 5	0.05 to 5	0.05 to 5						
1 to 10	1 to 10	0.05 to 5		O=C1c2c(nc3ccccc3c2OCc2ccc(F)c(Cl)c2)-c2cccn21 [Compound 603b, 9-((3-chloro-4-fluorobenzyl)oxy)-10H-pyrrolizino[1,2-b]quinolin-10-one]	0.05 to 5	0.05 to 5	0.05 to 5	0.05 to 5	0.05 to 5	0.05 to 5						
1 to 10	1 to 10	0.05 to 5		O=C1c2c(n(CCCO)c3ccccc3c2=O)-c2cccn21 [Compound 16a, 4-(3-Hydroxypropyl)-9H-pyrrolizino[1,2-b]quinoline-9,10(4H)-dione]	0.05 to 5	0.05 to 5	0.05 to 5	0.05 to 5	0.05 to 5	0.05 to 5						
1 to 10	1 to 10	0.05 to 5		O=C1c2c(nc3cccc(Cl)c3c2O)-c2cccn21 [Compound 464b, 8-chloro-9-hydroxy-10H-pyrrolizino[1,2-b]quinolin-10-one]	0.05 to 5	0.05 to 5	< 0.05	0.05 to 5	0.05 to 5	0.05 to 5						
1 to 10	1 to 10		0.05 to 5	Cc1cccc2nc3c(c(O)c12)C(=O)n1cccc1-3 [Compound 678b, 9-hydroxy-8-methyl-10H-pyrrolizino[1,2-b]quinolin-10-one]							0.05 to 5	0.05 to 5	0.05 to 5	0.05 to 5	0.05 to 5	0.05 to 5
1 to 10	1 to 10	0.05 to 5		O=C1c2c(n(Cc3cc(F)c(F)c(F)c3F)c3ccccc3c2=O)-c2cccn21 [Compound 587a, 4-(2,3,4,5-Tetrafluorobenzyl)-9H-pyrrolizino[1,2-b]quinoline-9,10(4H)-dione]	0.05 to 5	0.05 to 5	0.05 to 5	0.05 to 5	0.05 to 5	0.05 to 5						
0.1 to 1	1 to 10	0.05 to 5		O=C1c2c(n(Cc3cc(F)cc(F)c3)c3ccccc3c2=O)-c2cccn21 [Compound 579a, 4-(3,5-Difluorobenzyl)-9H-pyrrolizino[1,2-b]quinoline-9,10(4H)-dione]	0.05 to 5	0.05 to 5	0.05 to 5	0.05 to 5	0.05 to 5	0.05 to 5						
1 to 10	1 to 10	0.05 to 5		O=C1c2c(nc3ccccc3c2OCc2ccccc2F)-c2cccn21 [Compound 599b, 9-((2-fluorobenzyl)oxy)-10H-pyrrolizino[1,2-b]quinolin-10-one]	0.05 to 5	0.05 to 5	0.05 to 5	0.05 to 5	0.05 to 5	0.05 to 5						
1 to 10	10 to 50	0.05 to 5		O=C1c2c(nc3ccccc3c2OCc2c(Cl)cccc2Cl)-c2cccn21 [Compound 614b, 9-((2,6-dichlorobenzyl)oxy)-10H-pyrrolizino[1,2-b]quinolin-10-one]	0.05 to 5	0.05 to 5	0.05 to 5	0.05 to 5	0.05 to 5	0.05 to 5						
